These results are taken from patent US20170216355A1, “Methods and Compositions for Enhancing T Cell Function and Survival” (Augusta University Research Institute, Inc., priority 2016, published 2017).

One may read the IC50 as the point on the concentration scale where inhibition reaches its midpoint.

For data set [1], the system named is CD8 T cells from pMel-1 mice. The data set can be described thus: Phenotyping of gp100-activated CD8 T cells (CD62L/CD44 flow cytometry). In kind it is cell-based, mouse. The note with it: for phenotype of CD8 T cells (TCM vs TEM) compared to non-treated cells: after 3 days of stimulation with 1 μM gp100 25-33 (7 days culture); for CD62L expression level: day 3, and day 7 after each stimulation with gp100. Here is the method:
CD8 T cells from pMel-1 mice were activated in vitro as previously described^5. Briefly, homogenized pMel-1 splenocytes were stimulated with gp10025-33 peptide at a 1 μM concentration (day 0). Cells were cultured in RPMI 1640 (Lonza) supplemented with 10% FBS, penicillin (100 U/mL), streptomycin ([…]), 0.1% β-mercaptoethanol (Life Technologies, Invitrogen) and IL-2 (100 U/ml) (Peprotech) at 37° C. with 5% CO2. pMel-1 cells were cultured with or without the different PI3K inhibitors. The concentration of the inhibitors was maintained throughout the culture by changing the media every 48-72 hours.
On Days 7, 14 and 21, cells were re-stimulated with gp10025-33 peptide at a 1 μM concentration using feeder cells (irradiated WT splenocytes, 4000 Rads) at 1:1 ratio using the same culture conditions.
Cells were labeled with 5 μM Violet Cell Trace (VCT) proliferation dye (Life Technologies, Invitrogen) prior to their stimulation (day 0) following the manufacturers' instructions. The proliferation of CD8 T cells was assessed via VCT dye dilution (day 3) using an LSRII SORP with HTS Flow Cytometer (BD Biosciences). The data were analyzed using FlowJo 10 (Tree Star). The cultured cells were harvested on days 3, 7, 14 and 21 to assess their phenotype. Cells were stained with the following surface marker antibodies (BD Biosciences): APC-Cy7 labeled anti-CD8, FITC labeled anti-Vβ13, PE labeled anti-CD62L, APC labeled anti-CD44, PE-CF594 labeled anti-CD127, APC labeled anti-KLRG-1 in addition to the viability stain 7AAD. All the analyses were performed on viable (7AAD−), Vβ13+CD8+ T cells.
Background: A flow cytometer gives signals particle by particle.

Data set [2] concerns CD8 T cells from pMel-1 mice. The experiment in a line: Proliferation assay (VCT dye dilution) and fold expansion of CD8 T cells. Format: cell-based, mouse.
Procedure: CD8 T cells from pMel-1 mice were activated in vitro as previously described^5. […] The concentration of the inhibitors was maintained throughout the culture by changing the media every 48-72 hours. […] The data were analyzed using FlowJo 10 (Tree Star). […] Cells were stained with the following surface marker antibodies (BD Biosciences): APC-Cy7 labeled anti-CD8, FITC labeled anti-Vβ13, PE labeled anti-CD62L, APC labeled anti-CD44, PE-CF594 labeled anti-CD127, APC labeled anti-KLRG-1 in addition to the viability stain 7AAD. All the analyses were performed on viable (7AAD−), Vβ13+CD8+ T cells.
Data set [3] deals with CD8 T cells from pMel-1 mice. The data set can be described thus: Cytometric Bead Array of IL-2, TNF and IFN-γ secretion. Format: cell-based, mouse.
The next data set concerns the target p110α (Homo sapiens, UniProt P42336). The note with it: cited from earlier work.
For another data set, the target named is p110δ (Homo sapiens, UniProt O00329). The note with it: cited from earlier work.
The target of a further data set is p110γ (Homo sapiens, UniProt P48736). The note with it: cited from earlier work.

Entries after “also recorded” stand apart in the source; their conditions may differ. Bounds are passed on as bounds.

Sequence of p110γ (P48736 whole entry, species assumed): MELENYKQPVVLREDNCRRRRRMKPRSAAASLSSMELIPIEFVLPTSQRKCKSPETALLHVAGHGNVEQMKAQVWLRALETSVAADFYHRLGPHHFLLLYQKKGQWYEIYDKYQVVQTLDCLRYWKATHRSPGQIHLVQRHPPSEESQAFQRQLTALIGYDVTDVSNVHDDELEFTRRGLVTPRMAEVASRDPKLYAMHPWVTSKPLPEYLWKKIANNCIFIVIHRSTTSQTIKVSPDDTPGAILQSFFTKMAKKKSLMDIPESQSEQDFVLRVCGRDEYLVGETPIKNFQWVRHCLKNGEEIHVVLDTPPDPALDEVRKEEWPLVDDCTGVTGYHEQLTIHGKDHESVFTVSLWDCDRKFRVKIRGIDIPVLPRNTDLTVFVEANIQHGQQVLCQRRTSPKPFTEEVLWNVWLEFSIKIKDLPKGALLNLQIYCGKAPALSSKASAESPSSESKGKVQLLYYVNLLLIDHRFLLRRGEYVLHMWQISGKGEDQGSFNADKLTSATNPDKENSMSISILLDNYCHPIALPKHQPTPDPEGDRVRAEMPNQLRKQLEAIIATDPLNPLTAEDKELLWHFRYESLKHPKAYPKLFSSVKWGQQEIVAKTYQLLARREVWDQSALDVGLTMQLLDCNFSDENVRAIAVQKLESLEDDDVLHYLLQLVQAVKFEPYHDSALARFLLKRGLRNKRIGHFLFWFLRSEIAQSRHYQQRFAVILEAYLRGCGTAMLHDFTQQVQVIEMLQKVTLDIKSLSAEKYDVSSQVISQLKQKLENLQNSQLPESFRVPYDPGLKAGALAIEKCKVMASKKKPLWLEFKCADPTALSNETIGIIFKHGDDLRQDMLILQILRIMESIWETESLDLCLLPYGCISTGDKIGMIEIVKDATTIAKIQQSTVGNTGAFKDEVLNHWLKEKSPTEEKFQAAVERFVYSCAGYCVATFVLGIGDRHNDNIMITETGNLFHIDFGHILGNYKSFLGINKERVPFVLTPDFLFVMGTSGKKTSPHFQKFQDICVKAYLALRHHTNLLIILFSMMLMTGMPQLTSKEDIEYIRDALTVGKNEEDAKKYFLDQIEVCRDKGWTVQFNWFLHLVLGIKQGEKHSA
Sequence of p110α (P42336 whole entry, species assumed): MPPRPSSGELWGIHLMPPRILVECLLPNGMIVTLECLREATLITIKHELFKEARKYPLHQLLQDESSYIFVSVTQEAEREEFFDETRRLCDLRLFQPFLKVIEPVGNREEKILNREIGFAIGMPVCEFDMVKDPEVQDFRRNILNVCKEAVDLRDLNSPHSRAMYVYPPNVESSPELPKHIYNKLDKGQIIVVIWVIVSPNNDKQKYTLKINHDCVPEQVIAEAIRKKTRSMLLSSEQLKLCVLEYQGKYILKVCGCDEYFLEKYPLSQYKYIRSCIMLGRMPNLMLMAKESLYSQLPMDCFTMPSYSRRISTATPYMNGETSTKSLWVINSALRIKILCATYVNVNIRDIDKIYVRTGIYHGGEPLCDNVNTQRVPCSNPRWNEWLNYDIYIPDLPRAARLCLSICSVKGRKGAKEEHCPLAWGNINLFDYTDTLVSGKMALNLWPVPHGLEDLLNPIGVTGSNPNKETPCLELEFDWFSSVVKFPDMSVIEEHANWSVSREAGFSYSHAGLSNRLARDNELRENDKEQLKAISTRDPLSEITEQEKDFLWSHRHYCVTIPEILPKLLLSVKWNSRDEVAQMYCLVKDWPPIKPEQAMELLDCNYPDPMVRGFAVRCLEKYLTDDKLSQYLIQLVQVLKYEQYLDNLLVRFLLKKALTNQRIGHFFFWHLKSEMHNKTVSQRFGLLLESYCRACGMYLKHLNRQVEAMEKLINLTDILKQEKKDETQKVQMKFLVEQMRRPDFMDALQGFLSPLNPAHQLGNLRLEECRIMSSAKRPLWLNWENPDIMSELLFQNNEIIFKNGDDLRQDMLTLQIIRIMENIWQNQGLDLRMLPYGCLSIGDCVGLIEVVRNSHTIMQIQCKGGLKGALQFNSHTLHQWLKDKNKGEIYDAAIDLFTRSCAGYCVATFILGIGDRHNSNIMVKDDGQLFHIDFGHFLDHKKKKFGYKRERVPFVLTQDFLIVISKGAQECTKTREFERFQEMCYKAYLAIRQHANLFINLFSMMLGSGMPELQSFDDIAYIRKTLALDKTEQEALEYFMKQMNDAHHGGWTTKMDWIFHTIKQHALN
Sequence of p110δ (O00329 whole entry, species assumed): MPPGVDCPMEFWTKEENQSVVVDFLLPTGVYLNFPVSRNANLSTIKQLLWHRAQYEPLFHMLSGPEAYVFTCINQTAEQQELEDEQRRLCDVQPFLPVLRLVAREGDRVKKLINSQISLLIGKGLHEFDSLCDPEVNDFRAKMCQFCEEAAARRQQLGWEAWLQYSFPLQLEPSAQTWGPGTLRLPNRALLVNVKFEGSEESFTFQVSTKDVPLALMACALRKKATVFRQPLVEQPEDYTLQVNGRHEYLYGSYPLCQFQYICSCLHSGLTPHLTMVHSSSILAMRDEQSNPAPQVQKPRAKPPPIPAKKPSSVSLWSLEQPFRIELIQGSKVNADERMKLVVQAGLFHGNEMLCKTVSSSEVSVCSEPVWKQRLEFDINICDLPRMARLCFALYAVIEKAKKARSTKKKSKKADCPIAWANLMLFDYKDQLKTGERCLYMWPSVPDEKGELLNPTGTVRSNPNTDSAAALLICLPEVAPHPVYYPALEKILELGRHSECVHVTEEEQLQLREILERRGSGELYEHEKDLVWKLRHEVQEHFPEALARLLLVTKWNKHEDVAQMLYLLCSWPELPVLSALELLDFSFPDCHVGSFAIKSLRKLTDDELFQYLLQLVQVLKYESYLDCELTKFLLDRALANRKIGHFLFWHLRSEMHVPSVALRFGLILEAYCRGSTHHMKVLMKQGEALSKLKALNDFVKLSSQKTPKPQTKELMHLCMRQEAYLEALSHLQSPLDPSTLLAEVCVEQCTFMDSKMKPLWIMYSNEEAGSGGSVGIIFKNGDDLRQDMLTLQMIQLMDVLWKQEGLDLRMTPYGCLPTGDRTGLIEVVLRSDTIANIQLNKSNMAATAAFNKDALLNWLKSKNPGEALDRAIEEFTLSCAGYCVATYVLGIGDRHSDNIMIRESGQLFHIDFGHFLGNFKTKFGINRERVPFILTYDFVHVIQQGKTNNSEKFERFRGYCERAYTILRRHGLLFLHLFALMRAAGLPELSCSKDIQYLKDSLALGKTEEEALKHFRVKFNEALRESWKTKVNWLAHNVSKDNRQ
Sequence of p110δ (P27986 whole entry partner, species assumed): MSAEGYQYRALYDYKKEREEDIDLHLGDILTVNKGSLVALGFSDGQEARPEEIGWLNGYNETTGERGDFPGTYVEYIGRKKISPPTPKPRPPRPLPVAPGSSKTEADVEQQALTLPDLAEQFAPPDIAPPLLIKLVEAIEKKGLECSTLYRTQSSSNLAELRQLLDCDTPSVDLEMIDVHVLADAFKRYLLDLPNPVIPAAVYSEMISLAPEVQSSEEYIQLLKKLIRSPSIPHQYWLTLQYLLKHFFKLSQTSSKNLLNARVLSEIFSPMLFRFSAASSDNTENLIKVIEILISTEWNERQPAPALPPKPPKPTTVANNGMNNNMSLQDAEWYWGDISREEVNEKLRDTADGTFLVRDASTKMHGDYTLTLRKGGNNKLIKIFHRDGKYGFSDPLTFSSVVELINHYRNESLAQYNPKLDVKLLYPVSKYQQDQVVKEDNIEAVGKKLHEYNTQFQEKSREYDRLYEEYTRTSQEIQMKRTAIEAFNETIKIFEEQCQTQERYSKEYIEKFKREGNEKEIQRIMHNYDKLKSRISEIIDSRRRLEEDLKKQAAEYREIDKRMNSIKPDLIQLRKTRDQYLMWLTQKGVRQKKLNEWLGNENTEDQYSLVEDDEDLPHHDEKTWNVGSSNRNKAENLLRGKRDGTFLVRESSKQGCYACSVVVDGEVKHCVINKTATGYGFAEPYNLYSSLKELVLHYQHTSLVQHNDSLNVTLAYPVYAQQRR

For `Cc1nc(NC(=O)N2CCC[C@H]2C(N)=O)sc1-c1csc(C(C)(C)C)n1` [A66], the “phenotype of CD8 T cells (TCM vs TEM) compared to non-treated cells” value in data set [1] is “no differences in the phenotype”.
Regarding `CC[C@H](Nc1ncnc2[nH]cnc12)c1nc2cccc(F)c2c(=O)n1-c1ccccc1` [CAL-101], in data set [1] (D3, stim1, representative example, non-treated 4%), the “percentage of TCM” value is on record as 32%. In data set [1] (D7, Stim 3, representative example, non-treated 36%), the “percentage of terminally differentiated T-cells” value came out at 5%. The “percentage of TEM cells (CD62LloCD44hi)” value in data set [1] (D7, Stim3, representative example, non-treated 64%) is 95%.
Regarding `CS(=O)(=O)N1CCN(Cc2cc3nc(-c4cccc5[nH]ncc45)nc(N4CCOCC4)c3s2)CC1` [GDC-0941], in data set [2] (highest dose tested (279 nM)), the “toxicity to CD8 T cells” value is reported as “toxic”. Further, the “expansion of CD8 T cells” value in data set [2] (with further stimulations (days 7 and 14), vs non-treated cells) was “expand at a significantly high rate”. Moreover, the “percentage of TCM phenotype (CD62LhiCD44hi)” value in data set [1] (GDC at the highest concentration, non-treated cells 96% TEM) is 37%. The “percentage of TEM” value in data set [1] (GDC treatment, after the third stimulation, non-treated 64%) is given as 93%. The “percentage of TCM” value in data set [1] (GDC treatment, after the third stimulation, non-treated less than 0.01) is on record as 3.5%. Besides, in data set [1] (listed as GDC), the “phenotype of CD8 T cells (TCM vs TEM) compared to non-treated cells” value is “high percentage of the TCM phenotype; also recorded: high percentage of TCM cells” and the CD62L expression level result is “maintained high expression levels of CD62L”. In data set [1] (after the second and third stimulations), the “phenotype of CD8 T cells (TEM, terminally differentiated) compared to non-treated or other inhibitors” value was “higher percentage of TEM”. In data set [1] (after the third stimulation, highest GDC concentration, non-treated 36%), the “percentage of terminally differentiated T-cells (CD62LloCD44lo)” value amounted to 4%. The CD62L expression level result in data set [1] is “maintains a high level of CD62L expression”. The “ability of CD8 T cells to produce IFNγ and TNF” value in data set [3] (GDC-0941, A66 (288 nM), TGX-221 (45 nM), CAL-101 (202.5 nM), re-stimulated days 7 and 14, supernatant after 24 hours) is recorded as “not affected”. Besides, the IL-2 secretion result in data set [3] (after re-stimulation (stimulation 3), normalized to GP100, GDC 99 nM, CAL-101 202.5 nM, listed as GDC) is given as “significantly higher levels of IL-2; also recorded: maintained a significantly high level of IL-2 secretion”.
Regarding `Cc1cc(C(C)Nc2ccccc2)c2nc(N3CCOCC3)cc(=O)n2c1` (centres unmarked) [TGX-221], the IC50 is 5 µM on p110α, 0.1 µM on p110δ and above 10 µM on p110γ. For the same molecule, the “phenotype of CD8 T cells (TCM vs TEM) compared to non-treated cells” value in data set [1] is reported as “no differences in the phenotype”.
